From patent US9670482B2, “Multispecific peptides” (BICYCLE THERAPEUTICS LIMITED, priority 2009, dated 2017)
Read-outs that look alike come from different tables or passages of the source. Residues, ends and D or L forms follow the SMILES beside them. No end group written: not given here.

What was measured:
[1] = system: HCT116 cells; assay: Live cell imaging of peptide uptake, HCT116; assay type: cell-based, Human; settings: fluorescein-labelled TBMB conjugates, 10 μM
Protocol: Two cell lines, HeLa and HCT116, were used for these experiments. HeLa is a Human cervix epitheloid carcinoma and HCT116 is a Human colon carcinoma. Both cell types are widely available; for instance, HeLa cells are available from the UK HPA under catalogue number 93021013. HCT116 cells are available from the UK HPA under catalogue number 91091005.
Cells were seeded in Lab-Tek chambered borosilicate coverglass (Nunc). After culturing for 48 hrs (cells reached 40-60% confluency), media was removed and a fresh media supplemented with 10 μM of peptides was added to the cells. Cells were cultivated for a further 3.5 hrs or 24 hrs. At the end of the incubation time cells were washed 3×DMEM and finally resuspended in DMEM complete media supplemented with 10 mM HEPES buffer. Live cell imaging was performed on a laser scanning microscope (LSM 710, Zeiss), differential interference contrast (DIC) and fluorescent images were taken.
The cells were cultured in Dulbecco's Modified Eagle's Medium (DMEM, GIBCO) and supplemented with 10% (v/v) of heat-inactivated fetal bovine serum, 2 mM L-glutamine, 10 U/ml penicillin, and 100 ug/ml streptomycin (DMEM complete media) at 37° C. in a 5% CO2 atmosphere.

[2] = biological target: Human Serum Albumin (HSA) (Homo sapiens, UniProt P02768); assay: Fluorescence anisotropy titration with HSA; assay type: binding; settings: 200 nM fluorophore; Hill equation; Kd cannot be determined accurately
Sequence of Human Serum Albumin (HSA) (P02768 25-609): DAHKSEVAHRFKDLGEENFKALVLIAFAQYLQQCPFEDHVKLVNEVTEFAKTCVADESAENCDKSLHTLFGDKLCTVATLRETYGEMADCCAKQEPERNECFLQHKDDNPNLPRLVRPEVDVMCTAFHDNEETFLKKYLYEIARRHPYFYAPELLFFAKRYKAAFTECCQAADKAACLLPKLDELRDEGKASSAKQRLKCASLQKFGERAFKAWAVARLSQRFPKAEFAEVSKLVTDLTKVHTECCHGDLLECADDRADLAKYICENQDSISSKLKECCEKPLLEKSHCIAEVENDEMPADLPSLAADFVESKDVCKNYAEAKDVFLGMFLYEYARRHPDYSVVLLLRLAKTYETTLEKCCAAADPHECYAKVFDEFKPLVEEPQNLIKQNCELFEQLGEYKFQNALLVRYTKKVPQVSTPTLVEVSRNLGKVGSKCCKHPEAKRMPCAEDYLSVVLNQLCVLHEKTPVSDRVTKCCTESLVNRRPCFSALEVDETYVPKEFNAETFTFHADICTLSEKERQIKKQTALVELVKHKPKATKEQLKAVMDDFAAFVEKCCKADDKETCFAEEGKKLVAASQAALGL

[3] = biological target: bovine serum albumin (BSA) (Bos taurus, UniProt P02769); assay: Fluorescence anisotropy titration with BSA
Sequence of bovine serum albumin (BSA) (P02769 25-607): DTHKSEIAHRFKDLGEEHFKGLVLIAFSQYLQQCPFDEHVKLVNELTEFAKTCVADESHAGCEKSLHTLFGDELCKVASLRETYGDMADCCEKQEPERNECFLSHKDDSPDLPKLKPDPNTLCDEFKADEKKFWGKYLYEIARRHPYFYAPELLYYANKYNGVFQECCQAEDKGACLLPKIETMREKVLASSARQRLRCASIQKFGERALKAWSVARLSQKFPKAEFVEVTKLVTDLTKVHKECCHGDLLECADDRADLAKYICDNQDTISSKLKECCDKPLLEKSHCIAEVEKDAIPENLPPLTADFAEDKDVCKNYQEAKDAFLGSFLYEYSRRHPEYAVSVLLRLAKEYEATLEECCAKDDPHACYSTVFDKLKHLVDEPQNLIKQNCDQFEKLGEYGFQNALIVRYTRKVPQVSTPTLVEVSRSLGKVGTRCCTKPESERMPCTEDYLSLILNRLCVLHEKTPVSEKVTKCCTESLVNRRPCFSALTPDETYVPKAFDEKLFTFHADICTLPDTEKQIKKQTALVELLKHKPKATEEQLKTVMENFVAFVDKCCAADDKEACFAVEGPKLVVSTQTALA
From the text: For determining the affinity constant (Kd) of a fluorophore to target protein, we chose fluorescence anisotropy titrations.
Excitation was specific for coumarin (328 nm), and emission at 393 nm.
To determine whether a neighbouring group (here, Gly) on Fmoc affects binding to BSA, a similar experiment was run with Fmoc-Gly-OH (Nova Biochem). The intrinsic fluorescing properties of Fmoc were used for the anisotropy experiments.
To determine whether a neighbouring hydrophobic bulky group has an enhancing or adverse effect on BSA binding, Fmoc-Phe-OH was tested as above.
The solid phase resin employed was PAL-PEG-PS from Applied Biosystems. […] All peptides were capped with an N-terminal Fmoc, and a C-terminal amide (NH2). After cleavage, peptides were lyophilised, and solubilised in 5 mL of DMF. 100 μl of this was loaded onto an analytical C18 column using a Waters HPLC, using methanol and water (both in the presence of 0.1% TFA) as solvents. […] The peptide concentration in the cuvette was 200 nM.
Excitation was at 299 nm (to minimise Trp absorption), and emission at 320 nm. Slit widths were at 5 and 12 nm, respectively.
Peptide concentrations were estimated by the absorbance at 299 nm, using the extinction coefficient of 4700/M/cm. Excitation was at 299 nm, and emission was set to 320 nm, at slit widths of 5 and 12 nm, respectively.

[4] = biological target: T1, MDM2 (res 2-125) (Homo sapiens, UniProt Q00987); assay: Fluorescence anisotropy titration with MDM2; assay type: binding
T1 construct: made in house
T1 sequence (Q00987 2-125): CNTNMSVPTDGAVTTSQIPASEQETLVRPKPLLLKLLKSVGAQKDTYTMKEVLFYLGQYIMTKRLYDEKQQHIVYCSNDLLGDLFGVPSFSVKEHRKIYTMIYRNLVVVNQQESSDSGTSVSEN
Protocol: Titration experiments were run on a Horiba Jobin Yvon fluorimeter equipped with the Hamilton Microlab titrator controlled by laboratory software. The λex and λem used were 295 nm and 350 nm, respectively. The slit widths for excitation and emission were 5 nm and 15 nm and the integration time 10 s was used for each measurement. The intrinsic fluorescence of tryptophan in peptides 10, 48 was used to measure their binding affinity for MDM2 (res 2-125). The experiments were performed at 23 C.° in PBS, 5 mM DTT. Usually 250 ul of MDM2 (150 uM) was titrated into 1.2 ml of peptide (1 uM). Titration data were analyzed with a standard 1:1 binding model by using the quadratic solution to the equilibrium Kd=[A][B]/[AB]. […] The fitting equation contained an extra term to account for linear drift.
Mdm2 binds the complete PEP48 peptide with good affinity. We now determined whether Mdm2 binding is still functional within the Fmoc-Trp-linker-bicyclic derivative. 250 μL of 18.8 μM Mdm2 (expressed and purified as described in Teufel et al, PNAS 2007) was titrated into 1.2 ml of 500 nM peptide. A strong binding event occurred (Kd<1 μM), however, the data could not be fitted as the Kd was too far below the concentration of peptide employed in the experiment (FIG. 9). Lower concentrations of peptide could not be used due to technical limitations. Accurate determination of dissociation constants of this peptide to Mdm2 will require a better fluorophore than Fmoc (see above), or different methodologies such as isothermal titration calorimetry (ITC).

[5] = biological target: T2, Kallikrein (Homo sapiens, UniProt P03952); assay: Kallikrein assays (Z-Phe-Arg-amc substrate); assay type: biochemical
T2 construct: purchased Sigma Aldrich
T2 sequence (P03952 20-638): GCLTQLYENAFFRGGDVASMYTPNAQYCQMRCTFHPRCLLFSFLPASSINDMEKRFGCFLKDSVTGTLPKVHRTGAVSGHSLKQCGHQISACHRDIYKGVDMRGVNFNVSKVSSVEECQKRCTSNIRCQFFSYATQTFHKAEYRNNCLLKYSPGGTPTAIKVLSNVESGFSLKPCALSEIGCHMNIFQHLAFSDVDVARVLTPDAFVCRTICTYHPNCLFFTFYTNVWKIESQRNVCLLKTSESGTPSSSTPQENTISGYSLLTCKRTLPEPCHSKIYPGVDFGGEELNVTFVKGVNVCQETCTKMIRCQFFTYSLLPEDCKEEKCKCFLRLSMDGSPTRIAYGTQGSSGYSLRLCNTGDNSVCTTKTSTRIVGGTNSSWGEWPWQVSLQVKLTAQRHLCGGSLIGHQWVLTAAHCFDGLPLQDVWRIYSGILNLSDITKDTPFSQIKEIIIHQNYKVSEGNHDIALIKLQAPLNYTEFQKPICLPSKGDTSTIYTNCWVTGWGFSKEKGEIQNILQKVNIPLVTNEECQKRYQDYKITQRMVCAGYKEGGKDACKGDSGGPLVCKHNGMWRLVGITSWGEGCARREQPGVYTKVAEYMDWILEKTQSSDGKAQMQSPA
Protocol: Enzymes were purchased from Sigma Aldrich and substrates from Bachem A G. The assay buffer is composed of 10 mM Tris pH 7.4, 150 mM NaCl, 10 mM MgCl2, 1 mM CaCl2, 0.1% BSA, 0.01% Triton X100 and 5% DMSO. Enzymes are incubated with inhibitors for 30 minutes at RT prior to addition of substrate. All experiments were recorded at 30° C. for 90 minutes.
Assays were performed on a BMG Pherastar plate reader at wavelengths of exc/em 350/450 nm. Kallikrein was bought as a solution of 1080 μg/mL and diluted to a working concentration of 0.3 nM in assay buffer. Substrate Z-Phe-Arg-amc was solubilised at the stock concentration of 10 mM in DMSO and diluted to a working concentration of 300 μM with assay buffer. Inhibitors were solubilised in assay buffer to a stock concentration of 60 μM. 50 μL of each reagent is introduced in wells for a final volume of 150 μL per well. Final concentration of kallikrein in assay is 0.1 nM and substrate is 100 μM.
Final concentrations of inhibitors were: 0.5 nM, 1 nM, 2 nM, 5 nM, 8 nM, 10 nM, 20 nM, 50 nM, 80 nM, 100 nM, 200 nM, 500 nM, 800 nM, 1 μM, 2 μM, 5 μM, 8 μM, 10 μM and 20 μM. The initial rate of the reaction is obtained by plotting fluorescence=f (time) data and by fitting a linear trendline for each concentration of inhibitor. The inhibition curves are obtained by plotting initial rate=f ([I]) and IC50 values can be evaluated.

[6] = Solubility in water; assay type: physicochemical

## Pep48-D3: SCVRFGWTCDNSWHGCKG with C-terminal DDD (control), N-terminal fluorescein or methoxy-coumarin (SCVRFGWTCDNSWHGCKGDDD; cysteine pairing not given here; also: N-terminal fluorescein or methoxy-coumarin)
[1]
  cell penetration (fluorescent staining within the cell): not

## O=C(NC(Cc1ccccc1)C(=O)O)OCC1c2ccccc2-c2ccccc21 (centres unmarked) [Fmoc-Phe-OH]
[2]
  Kd: ~10 nM
[3]
  Kd: ~100 nM

## Pep48-R3: SCVRFGWTCDNSWHGCKG with C-terminal RRR, N-terminal fluorescein or methoxy-coumarin (SCVRFGWTCDNSWHGCKGRRR; cysteine pairing not given here; also: N-terminal fluorescein or methoxy-coumarin)
[1]
  cell penetration (fluorescent staining within the cell): fluorescent staining within the cell

## CC(C)[C@@H]1NC(=O)[C@@H](NC(=O)[C@@H](N)CO)CSCc2cc3cc(c2)CSC[C@H](NC(=O)[C@H]([C@@H](C)O)NC(=O)[C@H](Cc2c[nH]c4ccccc24)NC(=O)CNC(=O)[C@H](Cc2ccccc2)NC(=O)[C@H](CCCNC(=N)N)NC1=O)C(=O)N[C@@H](CC(=O)O)C(=O)N[C@@H](CC(N)=O)C(=O)N[C@@H](CO)C(=O)N[C@@H](Cc1c[nH]c2ccccc12)C(=O)N[C@@H](Cc1c[nH]cn1)C(=O)NCC(=O)N[C@H](C(=O)N[C@@H](CCCCN)C(=O)NCC(=O)O)CSC3 [PEP48] (HELM PEPTIDE1{S.C.V.R.F.G.W.T.C.D.N.S.W.H.G.C.K.G}|CHEM1{[c1c(C[*:1])cc(C[*:3])cc1C[*:2]]}$PEPTIDE1,CHEM1,2:R3-1:R1|PEPTIDE1,CHEM1,9:R3-1:R2|PEPTIDE1,CHEM1,16:R3-1:R3$$$V2.0)
[4]
  Kd: 500 to 800 nM

## CC(C)[C@@H]1NC(=O)[C@@H](NC(=O)[C@H](C)NC(=O)CNC(=O)CNC(=O)CNC(=O)[C@H](Cc2c[nH]c3ccccc23)NC(=O)OCC2c3ccccc3-c3ccccc32)CSCc2cc3cc(c2)CSC[C@H](NC(=O)[C@H]([C@@H](C)O)NC(=O)[C@H](Cc2c[nH]c4ccccc24)NC(=O)CNC(=O)[C@H](Cc2ccccc2)NC(=O)[C@H](CCCNC(=N)N)NC1=O)C(=O)N[C@@H](CO)C(=O)N[C@@H](CC(=O)O)C(=O)N[C@@H](CCCNC(=N)N)C(=O)N[C@@H](Cc1ccccc1)C(=O)N[C@@H](CCCNC(=N)N)C(=O)N[C@@H](CC(N)=O)C(=O)N[C@H](C(=O)NCC(N)=O)CSC3 [FmocPEP48L1-PK15L1 bicyclic] (HELM PEPTIDE1{[O=C(OCC1c2ccccc2-c2ccccc21)[*:2]].W.G.G.G.A.C.V.R.F.G.W.T.C.S.D.R.F.R.N.C.G.[am]}|CHEM1{[c1c(C[*:1])cc(C[*:3])cc1C[*:2]]}$PEPTIDE1,CHEM1,7:R3-1:R1|PEPTIDE1,CHEM1,14:R3-1:R2|PEPTIDE1,CHEM1,21:R3-1:R3$$$V2.0)
[5]; IC50 for inhibition of kallikrein activity, 0.1 nM kallikrein, 100 μM substrate, 30° C.
  IC50: 17 µM
[5]; IC50 for inhibition of kallikrein, preliminary experiment, restated in Example 3
  IC50: ~17 µM
[6]
  solubility in water: not well soluble in water
[3]; Kd for BSA, fluorescence anisotropy in PBS
  Kd: ~60 nM
[4]
  Kd: < 1000 nM
[4]; read-out: Kd for Mdm2, 18.8 μM Mdm2 titrated into 500 nM peptide, data could not be fitted (FIG. 9)
  Kd: < 1000 nM
